Measurements reported in WO2016087994A1, “Btk inhibitors to treat solid tumors through modulation of the tumor microenvironment” (dated 2016).
pEC50, pIC50: −log10 of the molar value. “Also recorded” adds a separate entry of the source.

What was measured:
[1] = system: GPVI platelet aggregation; experiment: GPVI (convulxin-induced) human platelet aggregation; format: cell-based
[2] = system: rituximab-coated Raji cells; experiment: Rituximab ADCC, chromium release, Raji targets; format: cell-based, human; details: 1 μM; healthy donor NK cells / Raji; listed as ibrutinib
[3] = system: B cell receptor (CD69 on CD19+ B cells); experiment: Inhibition of BCR signaling (CD69) on B cells in whole blood; format: cell-based; details: Homo sapiens, 18 h
CD4 + T cells = experiment: Th17 and Treg development of CD4+ T cells; format: cell-based
CD8 + T cells [4] = experiment: CD8+ T cell viability; format: cell-based; details: higher concentrations of ibrutinib; any concentration of Formula (II)
[5] = system: CD8 + T cells with B lymphoblast targets; experiment: Cytotoxic T cell (CTL) assay; format: cell-based; details: 500 nM, relative to vehicle
CD8 + T cells [6] = experiment: CD8+ T cell IFN-γ levels; format: cell-based; details: relative to vehicle
[7] = target: epidermal growth factor receptor (EGFR) (Homo sapiens, UniProt P00533); details: cited from earlier work
Sequence of epidermal growth factor receptor (EGFR) (P00533 25-1210): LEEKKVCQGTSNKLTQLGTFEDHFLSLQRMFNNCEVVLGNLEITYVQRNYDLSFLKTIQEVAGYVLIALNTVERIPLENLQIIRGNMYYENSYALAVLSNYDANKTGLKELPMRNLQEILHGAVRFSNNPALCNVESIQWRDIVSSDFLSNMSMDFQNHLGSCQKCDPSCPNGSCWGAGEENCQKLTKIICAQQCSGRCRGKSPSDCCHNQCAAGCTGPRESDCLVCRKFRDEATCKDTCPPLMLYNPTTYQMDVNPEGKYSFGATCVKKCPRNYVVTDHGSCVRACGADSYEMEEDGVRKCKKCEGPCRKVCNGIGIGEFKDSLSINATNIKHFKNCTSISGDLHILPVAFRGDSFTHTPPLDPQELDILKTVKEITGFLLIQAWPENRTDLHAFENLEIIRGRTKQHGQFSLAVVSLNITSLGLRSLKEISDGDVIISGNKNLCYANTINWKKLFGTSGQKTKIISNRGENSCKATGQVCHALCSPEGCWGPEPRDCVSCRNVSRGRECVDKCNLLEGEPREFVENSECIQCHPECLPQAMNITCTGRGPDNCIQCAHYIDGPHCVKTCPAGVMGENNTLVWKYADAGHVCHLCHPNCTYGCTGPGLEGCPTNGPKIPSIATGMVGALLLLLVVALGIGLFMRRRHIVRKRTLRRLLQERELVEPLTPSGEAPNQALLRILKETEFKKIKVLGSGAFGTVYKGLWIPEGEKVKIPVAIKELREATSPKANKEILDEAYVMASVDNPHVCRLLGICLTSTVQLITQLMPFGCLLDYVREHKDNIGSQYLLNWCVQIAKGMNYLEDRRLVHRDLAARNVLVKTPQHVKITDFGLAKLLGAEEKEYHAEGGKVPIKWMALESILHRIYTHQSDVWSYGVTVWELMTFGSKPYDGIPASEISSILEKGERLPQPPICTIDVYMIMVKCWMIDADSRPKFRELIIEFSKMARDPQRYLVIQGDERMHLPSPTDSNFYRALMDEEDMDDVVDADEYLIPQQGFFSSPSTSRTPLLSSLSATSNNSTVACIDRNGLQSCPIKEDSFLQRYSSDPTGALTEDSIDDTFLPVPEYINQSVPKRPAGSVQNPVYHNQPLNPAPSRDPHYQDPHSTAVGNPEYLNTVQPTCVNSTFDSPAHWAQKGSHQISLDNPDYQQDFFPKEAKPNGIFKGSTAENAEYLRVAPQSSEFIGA

[8] = system: CLL/lymphoid malignancies; details: human, in vivo; cited from earlier work
[9] = 420 mg QD; cited from earlier work
[10] = system: human platelet-mediated thrombosis; experiment: In vivo human platelet thrombus formation after laser injury in VWF HA1 mice; parameters: species or system human platelets in VWF HA1 mice
[11] = system: metastatic pancreatic cancer; details: Phase 3; P < 0.001; cited from earlier work
CLL = details: cited from earlier work
[12] = Phase 1, previously treated CLL, monotherapy

For `C=CC(=O)N1CCC[C@@H](n2nc(-c3ccc(Oc4ccccc4)cc3)c3c(N)ncnc32)C1` [Formula (X), l-[(3i?)-3-[4-amino-3-(4-phenoxyphenyl)-lH-pyrazolo[3,4-i]pyrimidin-l-yl]piperidin-l-yl]prop-2-en-l-one], the “inhibition of GPVI platelet aggregation (in words)” value [1] was “significantly inhibits GPVI platelet aggregation”, the pIC50 ([1]; Homo sapiens, Platelet, read-out: IC50, GPVI platelet aggregation) was 6.89 and the “inhibition of rituximab ADCC (in words)” value [2] was “completely inhibited ADCC; also recorded: strongly inhibited the antibody-dependent lysis of target cells”. For the same molecule, the pEC50 [3] was 8.21, the “Th17 development (in words)” value (CD4 + T cells) was “profound inhibition of Thl7 cells” and the “Treg development (in words)” value (CD4 + T cells) was “increase in Treg development”. For the same molecule, the “CD8+ T cell viability (in words)” value (CD8 + T cells [4]) was “strong, negative effect on CD8 + T cell viability”, the “CD8+ T cell function as % cytotoxicity (in words)” value [5] was “affects CD8 + T cell function” and the “CD8+ T cell function as IFN-γ level (in words)” value (CD8 + T cells [6]) was “affects CD8 + T cell function; also recorded: significant loss of function”. The “inhibition of EGFR (in words)” value [7] was “inhibits epidermal growth factor receptor (EGFR)”, the “onset of lymphocytosis after start of therapy” value [8] was 1-2 weeks and the “time to plateau of lymphocytosis” value [8] was 2-3 cycles. The “bleeding events in CLL” value [9] was 63%.
In the case of `C=CC(=O)Nc1cccc(Nc2nc(Nc3ccc(OCCOC)cc3)ncc2F)c1` [Formula (XVII), N-(3-((5-fluoro-2-((4-(2-methoxyethoxy)phenyl)amino)pyrimidin-4-yl)amino)phenyl)acrylamide, reference compound], the “effect on thrombus formation (in words)” value [10] was “interfere with thrombus formation; also recorded: an effect similar to Formula (X) (ibrutinib)”.
In the case of `Nc1ccn([C@@H]2O[C@H](CO)[C@@H](O)C2(F)F)c(=O)n1` [gemcitabine, 4-amino-l-((2i?,4i?,5i?)-3,3-difluoro-4-hydroxy-5-(hydroxymethyl)tetrahydrofuran-2-yl)pyrimidin-2(lH)-one], the ORR [11] is listed as 7%, the “median OS” value [11] is listed as 6.7 months and the “median PFS” value [11] is listed as 3.7 months.
In the case of “obinutuzumab: humanized monoclonal antibody directed against CD20”, the MRD-negative complete responses (CLL; [12]) is listed as 1, the response rate (CLL; [12]) is listed as 62% and the “infusion related reactions (IRR), Grade 3” value (CLL; R/R CLL, Phase 1 portion, n=13) is listed as 15%. The “infusion related reactions (IRR), Grade 4 (in words)” value (CLL; R/R CLL, Phase 1 portion, n=13) was “no Grade 4”, the “infusion related reactions (IRR), all grade” value (CLL; R/R CLL, Phase 1 portion, n=13) was 100 % of patients and the “Grade 3 reactions among those with hypotension” value (CLL; R/R CLL, Phase 2 portion) was 25%. For the same molecule, the “IRR cases developing symptoms of hypotension” value (CLL; R/R CLL, Phase 2 portion) was 60 % of cases and the “patients with IRR” value (CLL; R/R CLL, Phase 2 portion) was 95 % of patients.
